Assay results: patent US10723707B2, “Heterocyclic substituted 2-amino quinazoline derivatives for the treatment of viral infections” (JANSSEN SCIENCES IRELAND UNLIMITED COMPANY, priority 2012, dated 2020)

Assays:
Format in all cases: cell-based
[1] = system: interferon-stimulated responsive elements (ISRE); test: Activation of ISRE promoter elements in HEK-ISREluc cells by conditioned media from PBMC; conditions: Homo sapiens, compound concentration applied to PBMCs, supernatant transferred to HEK-ISREluc cells, 24 hours, read-out: HEK-ISRE luc (LEC)
Protocol: The potential of compounds to induce IFN-I was also evaluated by measuring the activation of interferon-stimulated responsive elements (ISRE) by conditioned media from PBMC. The ISRE element of sequence GAAACTGAAACT (SEQ ID: 1) is highly responsive to the STAT1-STAT2-IRF9 transcription factor, activated upon binding of IFN-I to their receptor IFNAR (Clontech, PT3372-5W). The plasmid pISRE-Luc from Clontech (ref. 631913) contains 5 copies of this ISRE element, followed by the firefly luciferase ORF. A HEK293 cell line stably transfected with pISRE-Luc (HEK-ISREluc) was established to profile the conditioned PBMC cell culture media.
Briefly, PBMCs were prepared from buffy coats of at least two donors using a standard Ficoll centrifugation protocol. Isolated PBMCs were resuspended in RPMI medium supplemented with 10% human AB serum and 2×10^5 cells/well were dispensed into 384-well plates containing compounds (70 μL total volume). After overnight incubation, 10 μL of supernatant was transferred to 384-well plates containing 5×10^3 HEK-ISREluc cells/well in 30 μL (plated the day before). Following 24 hours of incubation, activation of the ISRE elements was measured by assaying luciferase activity using 40 μL/well Steady Lite Plus substrate (Perkin Elmer) and measured with ViewLux ultraHTS microplate imager (Perkin Elmer). The stimulating activity of each compound on the HEK-ISREluc cells was reported as LEC value, defined as the compound concentration applied to the PBMCs resulting in a luciferase activity at least two fold above the standard deviation of the assay. The LEC in turn indicates the degree of ISRE activation on transfer of a defined amount of PBMC culture medium. Recombinant interferon α-2a (Roferon-A) was used as a standard control compound.

[2] = biological target: T1, human TLR8 (Homo sapiens, UniProt Q9NR97); test: TLR8 cellular NFκB-luc reporter assay in transiently transfected HEK293 cells; conditions: lowest effective concentration, 6 hours incubation
T1 construct: expressed in transfected cells; host or cells: HEK293
T1 sequence (Q9NR97 27-1041): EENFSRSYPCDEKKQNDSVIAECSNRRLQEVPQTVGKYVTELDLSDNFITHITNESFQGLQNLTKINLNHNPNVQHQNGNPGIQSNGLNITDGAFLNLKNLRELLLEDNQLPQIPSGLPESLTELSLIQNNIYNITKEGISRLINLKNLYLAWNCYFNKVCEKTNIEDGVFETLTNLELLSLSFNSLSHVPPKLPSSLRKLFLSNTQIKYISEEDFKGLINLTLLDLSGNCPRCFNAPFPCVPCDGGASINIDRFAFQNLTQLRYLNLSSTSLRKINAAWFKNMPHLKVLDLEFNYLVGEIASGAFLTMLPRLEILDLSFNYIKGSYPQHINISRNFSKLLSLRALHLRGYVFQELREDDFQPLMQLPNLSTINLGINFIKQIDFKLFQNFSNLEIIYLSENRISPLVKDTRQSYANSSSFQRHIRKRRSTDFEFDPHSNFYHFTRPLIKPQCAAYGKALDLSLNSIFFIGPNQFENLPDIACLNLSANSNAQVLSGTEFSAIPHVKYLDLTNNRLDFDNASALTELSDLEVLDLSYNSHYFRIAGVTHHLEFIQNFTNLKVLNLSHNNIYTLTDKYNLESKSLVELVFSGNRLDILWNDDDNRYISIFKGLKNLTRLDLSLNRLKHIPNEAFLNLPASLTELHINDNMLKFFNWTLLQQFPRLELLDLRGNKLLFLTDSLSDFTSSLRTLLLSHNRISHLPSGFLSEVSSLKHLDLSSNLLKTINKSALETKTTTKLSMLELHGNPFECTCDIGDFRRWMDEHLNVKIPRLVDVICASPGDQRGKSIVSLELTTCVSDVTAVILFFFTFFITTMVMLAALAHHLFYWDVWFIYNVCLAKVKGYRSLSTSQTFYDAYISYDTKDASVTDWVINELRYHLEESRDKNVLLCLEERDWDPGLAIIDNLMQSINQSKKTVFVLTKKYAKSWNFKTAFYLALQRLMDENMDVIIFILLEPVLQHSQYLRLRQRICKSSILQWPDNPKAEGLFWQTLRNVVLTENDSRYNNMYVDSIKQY
Protocol: (§1) The ability of compounds to activate human TLR7 and/or TLR8 was assessed in a cellular reporter assay using HEK293 cells transiently transfected with a TLR7 or TLR8 expression vector and NFκB-luc reporter construct.
(§2) Briefly, HEK293 cells were grown in culture medium (DMEM supplemented with 10% FCS and 2 mM Glutamine). For transfection of cells in 15 cm dishes, cells were detached with Trypsin-EDTA, transfected with a mix of CMV-TLR7 or TLR8 plasmid (1700 ng), NFκB-luc plasmid (850 ng) and a transfection reagent and incubated for 48 h at 37° C. in a humidified 5% CO2 atmosphere. Transfected cells were then washed in PBS, detached with Trypsin-EDTA and resuspended in medium to a density of 1.25×10^5 cells/mL. Forty microliters of cells were then dispensed into each well in 384-well plates, where 200 nL of compound in 100% DMSO was already present. Following 6 hours incubation at 37° C., 5% CO2, the luciferase activity was determined by adding 15 μL of Steady Lite Plus substrate (Perkin Elmer) to each well and readout performed on a ViewLux ultraHTS microplate imager (Perkin Elmer). Dose response curves were generated from measurements performed in quadruplicates. Lowest effective concentrations (LEC) values, defined as the concentration that induces an effect which is at least two fold above the standard deviation of the assay, were determined for each compound.

[3] = biological target: T2, human TLR7 (Homo sapiens, UniProt Q9NYK1); test: TLR7 cellular NFκB-luc reporter assay in transiently transfected HEK293 cells; conditions: lowest effective concentration, 6 hours incubation
T2 construct: expressed in transfected cells; host or cells: HEK293
T2 sequence (Q9NYK1 27-1049): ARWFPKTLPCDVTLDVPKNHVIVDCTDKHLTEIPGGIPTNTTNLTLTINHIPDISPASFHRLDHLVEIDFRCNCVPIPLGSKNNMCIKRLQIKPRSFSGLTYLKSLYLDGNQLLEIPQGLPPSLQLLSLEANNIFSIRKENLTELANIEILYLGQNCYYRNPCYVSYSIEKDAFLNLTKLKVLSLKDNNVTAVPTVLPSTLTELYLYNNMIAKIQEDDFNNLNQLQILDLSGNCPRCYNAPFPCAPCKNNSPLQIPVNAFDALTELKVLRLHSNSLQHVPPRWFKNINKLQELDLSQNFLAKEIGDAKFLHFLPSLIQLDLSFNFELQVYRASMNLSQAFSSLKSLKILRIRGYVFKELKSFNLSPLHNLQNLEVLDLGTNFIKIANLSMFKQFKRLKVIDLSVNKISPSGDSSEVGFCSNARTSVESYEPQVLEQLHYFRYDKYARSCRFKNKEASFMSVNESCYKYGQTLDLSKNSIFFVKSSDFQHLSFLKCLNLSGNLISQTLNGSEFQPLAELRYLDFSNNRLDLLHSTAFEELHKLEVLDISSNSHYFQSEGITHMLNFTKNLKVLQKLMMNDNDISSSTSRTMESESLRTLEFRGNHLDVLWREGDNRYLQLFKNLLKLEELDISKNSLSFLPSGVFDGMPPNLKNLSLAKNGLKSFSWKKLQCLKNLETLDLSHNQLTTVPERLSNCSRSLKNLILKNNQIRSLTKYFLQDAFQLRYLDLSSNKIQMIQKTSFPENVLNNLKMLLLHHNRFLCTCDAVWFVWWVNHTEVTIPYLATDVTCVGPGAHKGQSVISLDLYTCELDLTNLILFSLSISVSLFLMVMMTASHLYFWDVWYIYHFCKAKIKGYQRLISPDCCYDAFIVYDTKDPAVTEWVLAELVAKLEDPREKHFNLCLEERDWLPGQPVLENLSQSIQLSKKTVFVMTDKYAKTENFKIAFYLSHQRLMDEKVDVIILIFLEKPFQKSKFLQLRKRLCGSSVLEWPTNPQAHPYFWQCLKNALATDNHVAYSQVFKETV
Protocol: as §1, §2

Row | Human TLR 8 (LEC) [2] [µM] | Human TLR 7 (LEC) [3] [µM] | Compound | minimal effective concentration [1] [µM]
1 | >25 | 0.94 | COc1cccc2nc(N)nc(N[C@H](C)c3ccccn3)c12 (single isomer, unassigned) [Compound 2] | 0.49
2 | >25 | 14.7 | CNC(=O)c1ccc2c(NC(C)c3ccccn3)nc(N)nc2c1 (stereo not drawn) [Compound 22] | 2.2
3 | >25 | 6.67 | CC(Nc1nc(N)nc2cc(C(=O)N(C)C)ccc12)c1ccccn1 (stereo not drawn) [Compound 23] | 1.62
4 | >25 | 2.14 | CCN(CC)C(=O)c1ccc2c(N[C@H](C)c3ccccn3)nc(N)nc2c1 (single isomer, unassigned) [Compound 26] | 7.33
5 | >25 | 0.74 | COc1ccc(F)c2nc(N)nc(NCc3cc(C)on3)c12 [Compound 31] | 0.46
6 | 5.51 | 0.83 | Nc1nc(N[C@@H](CO)[C@@H](O)c2ccccc2)c2ccccc2n1 [Compound 17] | 0.16
7 | >25 | 3.75 | COc1ccc2c(N[C@H](C)c3ccccn3)nc(N)nc2c1 (single isomer, unassigned) [Compound 6] | 0.64
8 | >25 | 0.72 | C[C@@H](Nc1nc(N)nc2ccccc12)c1ccccn1 (single isomer, unassigned) [Compound 1] | 0.61
9 | >25 | 5.21 | C[C@@H](Nc1nc(N)nc2c(F)cccc12)c1ccccn1 (single isomer, unassigned) [Compound 9] | 1.68
